Molecular target: T1, Muscarinic acetylcholine receptor M1 (Homo sapiens, UniProt P11229)
T1 sequence (P11229 whole entry): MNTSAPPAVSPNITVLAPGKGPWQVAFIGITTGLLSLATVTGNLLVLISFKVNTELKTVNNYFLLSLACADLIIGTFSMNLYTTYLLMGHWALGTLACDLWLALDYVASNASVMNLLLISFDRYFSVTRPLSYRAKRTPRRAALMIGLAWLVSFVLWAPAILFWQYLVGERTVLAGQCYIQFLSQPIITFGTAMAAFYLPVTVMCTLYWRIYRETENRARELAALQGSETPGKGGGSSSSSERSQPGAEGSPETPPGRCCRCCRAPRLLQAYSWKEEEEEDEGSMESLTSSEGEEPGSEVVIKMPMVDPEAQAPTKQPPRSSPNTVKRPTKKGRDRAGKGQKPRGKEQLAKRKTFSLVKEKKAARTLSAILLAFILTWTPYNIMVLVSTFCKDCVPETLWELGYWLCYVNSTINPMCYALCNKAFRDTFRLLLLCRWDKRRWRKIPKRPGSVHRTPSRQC
Assay: Positive allosteric modulation of muscarinic M1 receptor expressed in CHO cells assessed as effect on acetylcholine-induced intracellular calcium mobilization after 1 hr by FLIPR assay

Structure (SMILES): O=C1C(=O)N(Cc2ccc(Br)cc2)c2ccccc21
- EC50: 6.1 µM

From BindingDB's records for doi:10.1016/j.bmcl.2010.08.042 (Vanderbilt University Medical Center, 2010)
